Results on five compounds are retold here after ChEMBL document CHEMBL1201862, “PubChem BioAssay data set” (2004).

Assay [1] has as its target T1, Leucine aminopeptidase (Plasmodium falciparum 3D7, UniProt Q8IL11).
T1 sequence (Q8IL11 whole entry): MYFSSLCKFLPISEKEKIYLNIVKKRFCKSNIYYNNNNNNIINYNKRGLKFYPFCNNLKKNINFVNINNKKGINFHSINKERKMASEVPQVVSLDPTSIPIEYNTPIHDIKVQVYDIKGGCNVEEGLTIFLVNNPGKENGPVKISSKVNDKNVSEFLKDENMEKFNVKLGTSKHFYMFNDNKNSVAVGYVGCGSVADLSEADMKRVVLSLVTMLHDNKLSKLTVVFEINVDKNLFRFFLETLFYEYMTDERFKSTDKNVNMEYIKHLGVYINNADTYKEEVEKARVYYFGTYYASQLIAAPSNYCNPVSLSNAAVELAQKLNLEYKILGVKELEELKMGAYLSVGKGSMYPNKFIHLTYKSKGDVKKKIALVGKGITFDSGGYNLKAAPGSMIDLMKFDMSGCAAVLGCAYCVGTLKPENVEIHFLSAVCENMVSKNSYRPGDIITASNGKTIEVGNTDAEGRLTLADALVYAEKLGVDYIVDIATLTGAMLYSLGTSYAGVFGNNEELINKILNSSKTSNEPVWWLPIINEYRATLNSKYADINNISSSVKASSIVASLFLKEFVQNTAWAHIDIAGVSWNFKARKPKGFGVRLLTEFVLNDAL
Nature of the assay: P. falciparum M17LAP inhibitors, primary screen, biochemical, fluorogenic H-Leu-NHMec substrate, 1536-well (AID 1619). The class given is functional.

Assay [2] deals with T2, Aspartyl aminopeptidase (Plasmodium falciparum 3D7, UniProt Q8I2J3).
T2 sequence (Q8I2J3 whole entry): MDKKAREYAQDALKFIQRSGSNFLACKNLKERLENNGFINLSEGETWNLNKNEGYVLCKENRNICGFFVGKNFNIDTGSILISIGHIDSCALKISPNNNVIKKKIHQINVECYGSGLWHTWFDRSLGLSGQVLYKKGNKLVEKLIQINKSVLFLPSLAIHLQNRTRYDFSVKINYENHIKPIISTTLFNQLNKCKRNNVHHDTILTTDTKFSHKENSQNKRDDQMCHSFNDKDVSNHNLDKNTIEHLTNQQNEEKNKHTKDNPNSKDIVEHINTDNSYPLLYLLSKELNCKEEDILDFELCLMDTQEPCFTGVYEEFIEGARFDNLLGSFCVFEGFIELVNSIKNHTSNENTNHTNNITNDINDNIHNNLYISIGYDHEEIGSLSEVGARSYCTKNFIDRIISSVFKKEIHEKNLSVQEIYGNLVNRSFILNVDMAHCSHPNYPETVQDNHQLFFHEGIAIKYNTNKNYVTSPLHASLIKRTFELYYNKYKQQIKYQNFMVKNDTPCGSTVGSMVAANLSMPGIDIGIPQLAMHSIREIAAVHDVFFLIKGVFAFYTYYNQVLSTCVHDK
Nature of the assay: Counterscreen for inhibitors of M1 and M17 aminopeptidases: QFRET-based biochemical high throughput dose response assay for inhibitors of the Plasmodium falciparum M18 Aspartyl Aminopeptidase (PFM18AAP). [Related PubChem assays: 1619 (Screening assay (M17LAP inhibitors).), 1445 (Screening assay (M1AAP inhibitors).)]. In general terms: The purpose of a counterscreen is to sort out artefacts and off-target activity.

Assay [3] has as its target T3, Corticotropin-releasing factor receptor 2/Corticotropin-releasing factor-binding protein (Homo sapiens, UniProt P24387+Q13324).
T3 sequence (Q13324 whole entry): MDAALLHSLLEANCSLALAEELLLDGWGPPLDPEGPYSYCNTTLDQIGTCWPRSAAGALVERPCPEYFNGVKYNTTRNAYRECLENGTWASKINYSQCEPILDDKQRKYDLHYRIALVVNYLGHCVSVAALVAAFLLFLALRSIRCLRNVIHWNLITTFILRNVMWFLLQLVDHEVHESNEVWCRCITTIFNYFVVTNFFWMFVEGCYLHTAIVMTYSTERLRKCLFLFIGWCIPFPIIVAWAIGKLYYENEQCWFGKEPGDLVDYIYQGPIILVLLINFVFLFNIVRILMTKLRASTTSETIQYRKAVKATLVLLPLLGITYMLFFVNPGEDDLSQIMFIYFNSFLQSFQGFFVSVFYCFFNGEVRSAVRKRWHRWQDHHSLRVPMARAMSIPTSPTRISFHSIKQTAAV
T3 sequence (P24387 whole entry): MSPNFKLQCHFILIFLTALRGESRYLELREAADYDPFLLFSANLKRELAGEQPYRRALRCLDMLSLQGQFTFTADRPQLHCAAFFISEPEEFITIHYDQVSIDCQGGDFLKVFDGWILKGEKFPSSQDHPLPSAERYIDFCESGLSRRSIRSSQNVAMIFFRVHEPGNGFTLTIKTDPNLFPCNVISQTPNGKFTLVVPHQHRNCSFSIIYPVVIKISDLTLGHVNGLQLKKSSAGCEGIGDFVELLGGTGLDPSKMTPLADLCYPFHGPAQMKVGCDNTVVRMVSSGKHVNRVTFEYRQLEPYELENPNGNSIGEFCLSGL
Nature of the assay: activators of CRF receptor 2 with binding protein – uHTS hits, confirmation (AID 602473). Format: functional. Conditions: read-out: EC50_Mean.

Assay [4] is described as follows: blockers of CRF-binding protein–CRF-R2 complex – cell-based, uHTS hits, 384-well, dose response (AID 651639). Format: functional, Homo sapiens. Conditions: read-out: IC50_Mean.
In assay [5] the target is Procathepsin L (Homo sapiens, UniProt P07711). As to the kind of experiment: CTSL1 protease inhibition – biochemical, QFRET, 1536-well, counter-screen for M1/M17 aminopeptidase inhibitor project, dose response (AID 2214).
Procathepsin L, sequence (P07711 whole entry): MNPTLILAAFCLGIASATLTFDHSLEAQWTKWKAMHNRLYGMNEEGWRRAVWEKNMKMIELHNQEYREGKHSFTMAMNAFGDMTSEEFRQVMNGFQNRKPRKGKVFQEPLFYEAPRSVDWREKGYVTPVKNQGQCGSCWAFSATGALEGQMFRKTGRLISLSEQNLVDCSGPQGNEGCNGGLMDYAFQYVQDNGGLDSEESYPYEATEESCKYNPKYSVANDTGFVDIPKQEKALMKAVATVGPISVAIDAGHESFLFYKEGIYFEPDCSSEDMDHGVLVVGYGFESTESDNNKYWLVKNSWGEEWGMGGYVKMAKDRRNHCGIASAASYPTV
Assay [6] concerns the target T3, Corticotropin-releasing factor receptor 2/Corticotropin-releasing factor-binding protein. As to the kind of experiment: Dose Response confirmation of uHTS hits for small molecule antagonists of the CRF-binding protein and CRF-R2 receptor complex. Conditions: read-out: IC50_Mean. The class given is functional.
Assay [7] has as its target Estrogen receptor beta (Homo sapiens, UniProt Q92731).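 Further: recombinant ER-beta bound to coactivator SRC1 peptide in presence of estradiol agonist; inhibitors block coactivator peptide binding and lower the FRET signal.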
The target in assay [8] is T4, Estrogen receptor (Homo sapiens, UniProt P03372).
T4 sequence (P03372 whole entry): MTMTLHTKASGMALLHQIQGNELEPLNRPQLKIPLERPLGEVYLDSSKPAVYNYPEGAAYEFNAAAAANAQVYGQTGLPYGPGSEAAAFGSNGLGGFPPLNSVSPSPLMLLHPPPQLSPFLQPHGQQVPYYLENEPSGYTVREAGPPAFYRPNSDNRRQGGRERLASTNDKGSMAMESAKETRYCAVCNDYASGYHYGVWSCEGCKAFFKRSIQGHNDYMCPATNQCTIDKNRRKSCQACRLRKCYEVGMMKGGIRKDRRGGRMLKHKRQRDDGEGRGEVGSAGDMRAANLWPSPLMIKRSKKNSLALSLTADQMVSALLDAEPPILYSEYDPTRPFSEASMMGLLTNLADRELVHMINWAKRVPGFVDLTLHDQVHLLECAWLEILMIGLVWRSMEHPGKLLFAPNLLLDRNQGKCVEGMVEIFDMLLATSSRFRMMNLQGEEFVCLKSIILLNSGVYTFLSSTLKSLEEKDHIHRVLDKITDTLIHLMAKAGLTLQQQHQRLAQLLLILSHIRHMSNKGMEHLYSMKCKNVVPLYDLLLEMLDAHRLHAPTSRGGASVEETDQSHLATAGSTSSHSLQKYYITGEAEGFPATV

Assay [9] concerns the target T5, Short transient receptor potential channel 4 (Mus musculus, UniProt Q9QUQ5).
T5 sequence (Q9QUQ5 whole entry): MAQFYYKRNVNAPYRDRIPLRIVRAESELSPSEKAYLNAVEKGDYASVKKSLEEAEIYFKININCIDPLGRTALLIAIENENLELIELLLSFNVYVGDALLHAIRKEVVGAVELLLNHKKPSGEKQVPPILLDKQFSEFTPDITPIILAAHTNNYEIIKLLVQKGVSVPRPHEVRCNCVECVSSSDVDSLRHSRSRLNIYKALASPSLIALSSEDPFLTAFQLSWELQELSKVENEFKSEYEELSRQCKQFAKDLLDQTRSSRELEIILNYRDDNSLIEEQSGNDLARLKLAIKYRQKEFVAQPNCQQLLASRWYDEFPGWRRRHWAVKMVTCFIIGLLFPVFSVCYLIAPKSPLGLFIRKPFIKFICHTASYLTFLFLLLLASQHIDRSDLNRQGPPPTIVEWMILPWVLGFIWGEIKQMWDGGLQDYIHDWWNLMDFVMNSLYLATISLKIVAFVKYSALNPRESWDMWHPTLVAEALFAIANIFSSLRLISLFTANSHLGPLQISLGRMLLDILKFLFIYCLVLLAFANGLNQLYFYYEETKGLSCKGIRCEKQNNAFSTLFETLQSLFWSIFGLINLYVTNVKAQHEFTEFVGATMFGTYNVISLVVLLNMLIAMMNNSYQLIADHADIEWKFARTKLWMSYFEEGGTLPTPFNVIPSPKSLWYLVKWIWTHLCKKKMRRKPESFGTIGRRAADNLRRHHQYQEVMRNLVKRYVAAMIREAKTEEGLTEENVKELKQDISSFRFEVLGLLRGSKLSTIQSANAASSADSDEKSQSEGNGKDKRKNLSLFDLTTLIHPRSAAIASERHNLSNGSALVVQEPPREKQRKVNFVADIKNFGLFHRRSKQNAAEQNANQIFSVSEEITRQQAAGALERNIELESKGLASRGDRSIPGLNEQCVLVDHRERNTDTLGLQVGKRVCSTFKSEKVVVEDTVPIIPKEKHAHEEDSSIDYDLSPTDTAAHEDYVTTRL
As to the kind of experiment: block of DAMGO-driven TRPC4 calcium entry – cell-based, HEK293 TRPC4/mu-opioid, Fluo-4 calcium, dose response (AID 434942).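 Further: potency of inhibitors blocking the TRPC4 calcium response.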 Format: functional.

For assay [10], the target named is Genome polyprotein (dengue virus type 2, UniProt P29990). Nature of the assay: flavivirus cap methylation enzyme inhibition – biochemical, confirmation dose response, primary screen (AID 588689). The class given is functional.
Genome polyprotein, sequence (P29990 2492-3391 limits assumed): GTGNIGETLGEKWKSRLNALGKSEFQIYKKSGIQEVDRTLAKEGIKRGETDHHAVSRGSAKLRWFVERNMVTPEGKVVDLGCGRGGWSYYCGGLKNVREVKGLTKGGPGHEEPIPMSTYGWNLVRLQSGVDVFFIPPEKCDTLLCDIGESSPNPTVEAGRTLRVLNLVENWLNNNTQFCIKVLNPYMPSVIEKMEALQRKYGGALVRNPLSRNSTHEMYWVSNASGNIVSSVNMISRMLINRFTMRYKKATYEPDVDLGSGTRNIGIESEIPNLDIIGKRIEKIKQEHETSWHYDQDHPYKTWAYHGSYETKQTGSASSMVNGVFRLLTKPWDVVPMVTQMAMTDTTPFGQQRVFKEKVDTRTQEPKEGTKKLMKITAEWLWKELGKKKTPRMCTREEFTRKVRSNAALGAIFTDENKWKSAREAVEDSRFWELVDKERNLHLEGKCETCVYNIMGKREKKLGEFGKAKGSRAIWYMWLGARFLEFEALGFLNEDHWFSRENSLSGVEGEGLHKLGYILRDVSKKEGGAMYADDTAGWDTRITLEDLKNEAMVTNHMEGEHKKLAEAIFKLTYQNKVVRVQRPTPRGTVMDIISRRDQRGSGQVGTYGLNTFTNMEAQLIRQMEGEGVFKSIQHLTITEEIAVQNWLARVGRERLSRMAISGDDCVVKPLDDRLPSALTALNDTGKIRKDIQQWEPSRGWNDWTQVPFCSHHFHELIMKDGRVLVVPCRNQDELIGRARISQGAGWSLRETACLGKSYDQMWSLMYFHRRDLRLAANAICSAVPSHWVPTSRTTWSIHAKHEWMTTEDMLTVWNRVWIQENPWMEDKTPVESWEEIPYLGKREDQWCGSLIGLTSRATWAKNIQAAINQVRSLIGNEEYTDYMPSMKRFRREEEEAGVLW
Assay [11] has as its target T6, Protein skinhead-1 (Caenorhabditis elegans, UniProt P34707).
T6 sequence (P34707 whole entry): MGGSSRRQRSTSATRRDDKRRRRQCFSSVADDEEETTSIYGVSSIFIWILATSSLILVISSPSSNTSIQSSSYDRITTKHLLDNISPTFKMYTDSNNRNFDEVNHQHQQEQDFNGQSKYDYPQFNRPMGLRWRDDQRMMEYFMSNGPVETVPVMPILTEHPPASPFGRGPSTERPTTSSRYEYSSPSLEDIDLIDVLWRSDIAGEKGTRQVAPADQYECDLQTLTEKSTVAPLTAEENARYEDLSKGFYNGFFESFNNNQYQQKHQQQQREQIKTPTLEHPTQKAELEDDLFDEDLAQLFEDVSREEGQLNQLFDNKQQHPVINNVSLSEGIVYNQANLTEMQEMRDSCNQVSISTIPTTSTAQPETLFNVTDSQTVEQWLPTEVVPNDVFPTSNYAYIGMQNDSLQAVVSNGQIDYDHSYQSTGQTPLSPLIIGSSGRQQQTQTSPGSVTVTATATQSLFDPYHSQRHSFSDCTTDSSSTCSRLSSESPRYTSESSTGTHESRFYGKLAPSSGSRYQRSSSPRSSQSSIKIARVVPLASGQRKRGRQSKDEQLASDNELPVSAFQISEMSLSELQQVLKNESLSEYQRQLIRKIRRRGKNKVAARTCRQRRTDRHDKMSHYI
Format: functional.

The source made the active and inactive calls. Bounds are passed on as bounds.

Estrogen receptor beta, sequence (Q92731 whole entry): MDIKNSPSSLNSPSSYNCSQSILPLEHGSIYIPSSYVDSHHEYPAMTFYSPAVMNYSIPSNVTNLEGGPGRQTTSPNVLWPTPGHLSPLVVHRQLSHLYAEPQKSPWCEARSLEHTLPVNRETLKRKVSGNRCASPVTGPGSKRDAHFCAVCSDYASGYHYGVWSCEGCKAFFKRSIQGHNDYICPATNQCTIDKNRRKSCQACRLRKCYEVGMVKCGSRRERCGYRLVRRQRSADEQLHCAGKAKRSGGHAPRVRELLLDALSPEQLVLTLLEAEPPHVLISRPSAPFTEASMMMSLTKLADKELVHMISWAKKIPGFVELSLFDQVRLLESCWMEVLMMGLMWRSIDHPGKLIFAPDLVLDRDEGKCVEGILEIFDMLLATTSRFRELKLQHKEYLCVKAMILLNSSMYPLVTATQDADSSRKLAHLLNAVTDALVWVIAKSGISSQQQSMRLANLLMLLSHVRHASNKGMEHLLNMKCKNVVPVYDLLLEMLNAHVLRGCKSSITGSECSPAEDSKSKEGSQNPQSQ

On to `COc1cc(NC(=O)CSc2nc3c(C)ccc(C)c3cc2C)c(C(=O)O)cc1OC`, for which the IC50 in assay [1] was < 1 µM (active); in assay [2], > 73.5 µM (not active); in [4], > 20 µM (inactive); in assay [5], 59.3 µM (not active); in assay [6], 10.1 µM (active). Besides, the EC50 in assay [3] is > 53 µM (inactive).

For `Cc1ccc(C(=O)CSC2=C(C#N)C(c3ccco3)CC(=O)N2)c(C)c1` (stereo not drawn), the figures for the IC50 in [7] and in [8] were 16.1 µM (active) and 26.5 µM (active), respectively.

As to `CCOC(=O)c1c(-c2cccc(C)c2)csc1NC(=O)C1CC=CCC1C(=O)O` (stereo not drawn), the EC50 in [9] is 7.5 µM (active). The IC50 in assay [10] was 61 µM (active); in assay [1], 5.96 µM (active); in assay [2], > 73.5 µM (not active); in [5], > 59.6 µM (not active).

For `Cc1cc(O)nc(SCC(=O)Nc2cccc(C(F)(F)F)c2)n1`, the results for the IC50 in assay [1], in [2] and in [5] were 7.15 µM (active), > 73.5 µM (not active) and > 59.6 µM (not active), respectively.

Take `Cc1cc(Cl)cc(C)c1OCCCCN1CCOCC1`: the IC50 in [8] is > 50 µM (not active); in assay [11], 38.9 µM (active).
